The subject of series [1] is AktSer473 phosphorylation in SKOV3 ovarian cancer cells. Put plainly: Cellular washout study in SKOV3 cells, P-AktSer473 by immunoblot. The class given is cell-based. As to conditions: 2.5 μM for 2 hours, then washout. Here is the method:
(§1) The experiments were performed in triplicate; CNX-1351 was used as positive control (irreversible inhibitor) and PQR514 as negative control (reversible inhibitor). (b) Metabolic stability of 19, 22 and CNX-1351 using rat liver microsomes. The time-dependent loss of test items (1 μM) with liver microsomes (0.5 mg microsomal protein/mL) and the percentages of test item remaining after 60 minutes of incubation were measured, (n=2).
The experiments were performed in triplicate; CNX-1351 was used as positive control (irreversible inhibitor) and PQR514 as negative control (reversible inhibitor).
The library of acrylamide-containing compounds was evaluated for PI3K signaling in SKOV3 ovarian cancer cells. […] Inhibition of AktSer473 phosphorylation measured by immunoblot analysis was used as an indicator of inhibition of PI3K signaling. Cells were incubated with the drugs (2.5 μM each) for 2 hours.
The library of enone-containing compounds was evaluated for PI3K signaling in SKOV3 ovarian cancer cells. […] Inhibition of AktSer473 phosphorylation measured by immunoblot analysis was used as an indicator of inhibition of PI3K signaling. Cells were incubated with the drugs (2.5 μM each) for 2 hours.

The subject of series [2] is PKB phosphorylation on Ser473 in SKOV3 cells. Put plainly: In-cell Western assay of PKB Ser473 phosphorylation in SKOV3 cells. Type of series: cell-based. The following applies: n = 3, read-out: pPKB S473 IC50.
Series [3] is described as follows: Metabolic stability in rat liver microsomes. The following applies: rat liver microsomes 0.5 mg protein/mL, 1 μM, 60 minutes. Type of series: in vitro ADME. Here is the method:
as §1
The metabolic stability of 19, 22 and CNX-1351 was evaluated in vitro in rat liver microsomes.

For the next series, the target named is PI3Kα (Homo sapiens, UniProt P42336). Put plainly: TR-FRET tracer displacement / time-dependent inhibition (IC50 shift) assay. The class given is binding. As to the method:
The B-methyl substituted enone (2) and its corresponding moderately electrophilic derivative, β,β-dimethyl enone (3) were selected to explore the target space. A collection of compounds with pairwise matched linkers but either fast (2, 10-12) or moderate (3, 13-15) reacting Michael acceptors were synthesized (FIG. 3A). A time-dependent inhibition (IC50 shift) assay with five pre-incubation times was designed to identify covalent, time-dependent inhibitors. For compounds bearing a fast-reacting warhead (2, 10-12) a significant IC50 shift was observed also for compounds having their Michael acceptor at >4 Å from the cysteine thiol (FIG. 3E). […] The increased efficiency in covalent bond formation for 12 is due to the irreversible binding rather than an improvement in reversible affinity (see Ki values in FIG. 3D). […]
The library was tested for cellular potency on inhibition of PKB phorphorilation, considered as an indicator of inhibition of PI3K signaling. Time-resolved fluorescence resonance (TR-FRET) tracer displacement assay was used to determine the rate constant for irreversible inactivation (kinact) and the second order rate constant typically used to characterize the covalent binding of irreversible inhibitors to the target protein (kinact/Ki). […]

Chain of PI3Kα (P42336 whole entry): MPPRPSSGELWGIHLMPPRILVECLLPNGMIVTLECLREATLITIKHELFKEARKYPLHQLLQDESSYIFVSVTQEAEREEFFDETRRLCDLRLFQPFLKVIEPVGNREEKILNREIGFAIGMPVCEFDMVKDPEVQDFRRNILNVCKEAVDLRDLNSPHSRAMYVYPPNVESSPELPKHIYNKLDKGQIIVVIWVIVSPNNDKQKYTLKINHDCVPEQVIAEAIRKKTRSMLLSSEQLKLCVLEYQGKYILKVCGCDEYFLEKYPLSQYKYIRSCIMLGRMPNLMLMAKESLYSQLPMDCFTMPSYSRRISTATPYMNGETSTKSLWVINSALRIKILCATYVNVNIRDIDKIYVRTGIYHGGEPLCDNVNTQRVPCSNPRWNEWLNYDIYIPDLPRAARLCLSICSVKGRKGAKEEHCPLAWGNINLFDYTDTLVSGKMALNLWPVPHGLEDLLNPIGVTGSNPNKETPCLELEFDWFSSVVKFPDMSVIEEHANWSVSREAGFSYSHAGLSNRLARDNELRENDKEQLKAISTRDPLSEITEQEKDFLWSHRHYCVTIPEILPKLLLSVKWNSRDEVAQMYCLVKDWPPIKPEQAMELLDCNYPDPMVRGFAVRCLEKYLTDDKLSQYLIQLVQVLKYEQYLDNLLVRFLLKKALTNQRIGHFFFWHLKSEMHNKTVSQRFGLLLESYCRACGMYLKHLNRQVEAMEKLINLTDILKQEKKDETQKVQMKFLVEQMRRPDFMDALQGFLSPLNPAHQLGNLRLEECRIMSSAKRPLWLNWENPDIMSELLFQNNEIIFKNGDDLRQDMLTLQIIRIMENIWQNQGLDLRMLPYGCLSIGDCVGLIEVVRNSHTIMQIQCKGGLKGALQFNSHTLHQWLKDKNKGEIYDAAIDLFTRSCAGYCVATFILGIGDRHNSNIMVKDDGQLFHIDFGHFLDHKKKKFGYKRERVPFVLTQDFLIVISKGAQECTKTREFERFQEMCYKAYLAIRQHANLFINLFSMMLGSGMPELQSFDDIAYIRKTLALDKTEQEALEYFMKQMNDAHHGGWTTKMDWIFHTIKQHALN
Chain of PI3Kα (P27986 whole entry partner): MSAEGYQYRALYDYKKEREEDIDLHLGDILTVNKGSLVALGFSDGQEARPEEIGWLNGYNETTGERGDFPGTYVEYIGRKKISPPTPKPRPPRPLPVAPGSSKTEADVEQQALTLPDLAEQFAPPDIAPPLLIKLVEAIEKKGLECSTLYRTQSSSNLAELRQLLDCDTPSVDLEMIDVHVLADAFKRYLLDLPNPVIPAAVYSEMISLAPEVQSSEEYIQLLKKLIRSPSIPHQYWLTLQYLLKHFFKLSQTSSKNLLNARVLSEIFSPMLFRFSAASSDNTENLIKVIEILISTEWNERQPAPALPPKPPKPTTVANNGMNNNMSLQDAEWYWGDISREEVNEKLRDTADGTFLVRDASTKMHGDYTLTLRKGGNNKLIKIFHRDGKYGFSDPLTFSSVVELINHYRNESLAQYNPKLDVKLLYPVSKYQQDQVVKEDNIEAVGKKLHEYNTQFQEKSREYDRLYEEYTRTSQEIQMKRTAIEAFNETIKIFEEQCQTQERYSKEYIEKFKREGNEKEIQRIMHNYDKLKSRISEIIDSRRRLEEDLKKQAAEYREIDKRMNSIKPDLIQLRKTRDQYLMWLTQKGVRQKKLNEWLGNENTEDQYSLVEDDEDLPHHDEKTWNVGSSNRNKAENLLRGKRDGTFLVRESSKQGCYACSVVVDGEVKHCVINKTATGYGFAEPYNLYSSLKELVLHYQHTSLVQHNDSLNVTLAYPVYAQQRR

In the case of `Nc1ncc(-c2nc(N3CCOCC3)nc(N3CCOCC3)n2)c(C(F)F)n1` [PQR514], the “P-AktSer473 signaling after drug washout” value in series [1] is “immediately recovered”.
As to `CC(C)=CC(=O)CCC(=O)N1CCN(Cc2cc3nc(-c4cccc5[nH]ncc45)nc(N4CCOCC4)c3s2)CC1` [CNX-1351], the IC50 in series [2] was determined as 0.29 µM. The metabolic stability entry in series [3] is listed as “rapidly metabolized”. Further, in series [1], the “P-AktSer473 signaling after drug washout” value is recorded as “prolonged inhibition”. The “kinact/Ki, [nM^−1s^−1]” value on PI3Kα (TR-FRET efficiency of covalent bond formation) came out at 1.73e-05 nM⁻¹ s⁻¹. Also, the “kinact, [s^−1]” value on PI3Kα (TR-FRET rate constant for irreversible inactivation) was determined as 0.000657 s⁻¹.
